Source: patent US20260317357A1, “HETEROCYCLIC COMPOUNDS AS STING AGONISTS” (LigaChem Biosciences Inc., priority 2022, published 2026)

These compounds were tested against T1, hSTING-R232 (Homo sapiens, UniProt Q86WV6, H232R) (assay: STING agonist activity, THP1 Dual KI-hSTING-R232 IRF luciferase reporter cells). Settings: 24 hours.
T1 construct: host or cells: THP1 Dual KI-hSTING-R232 (STING HAQ gene removed, R232 variant gene introduced)
T1 sequence (Q86WV6 whole entry H232R): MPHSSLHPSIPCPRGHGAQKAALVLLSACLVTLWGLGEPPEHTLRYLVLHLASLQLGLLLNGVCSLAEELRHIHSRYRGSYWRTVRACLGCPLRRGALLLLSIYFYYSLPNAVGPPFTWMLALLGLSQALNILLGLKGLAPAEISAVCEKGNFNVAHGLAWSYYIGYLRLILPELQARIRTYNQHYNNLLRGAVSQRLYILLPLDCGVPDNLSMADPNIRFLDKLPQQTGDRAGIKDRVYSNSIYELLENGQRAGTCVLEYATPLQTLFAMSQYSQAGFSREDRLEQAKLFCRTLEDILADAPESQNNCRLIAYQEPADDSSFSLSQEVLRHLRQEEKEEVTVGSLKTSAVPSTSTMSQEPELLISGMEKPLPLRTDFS
Assay type: cell-based
Description: In order to evaluate the activity of the STING agonist, reporter cells from Invivogen were used. The cell lines used in the experiment were THP1 Dual™ (InvivoGen #thpd-nfis) expressing the endogenous STING variant HAQ and THP1 Dual™ KI-hSTING-R232 (InvivoGen #thpd-r232/h232) into which the STING R232 or H232 variant gene was injected after removing the STING HAQ gene. The cell lines have a luciferase reporter gene inserted below the IFN regulatory factor (IRF) promoter, and thus the activity of the IFN regulatory factor (IRF) mechanism can be evaluated through luciferase expression.
The reporter cells were plated at 9.0×10^4 cells/100 μL per well in a 96-well plate using RPMI 1640 medium (Gibco, #22400097) supplemented with 10% heat-inactivated FBS and 1×Antibiotic-Antimycotic (Gibco, #15240062), 10 μg/mL blasticidin (Gibco, #A1113902), and 100 μg/mL Zeocin (Gibco, #R25005). The plated cells were cultured at 37° C., 5% CO2 for 24 hours, and then treated with 100 μL of the serially diluted compound in each well, and then cultured at 37° C., 5% CO2 for 24 hours. After culturing, 20 μL of the cell culture medium was transferred to a 96 well white plate, and QUANTI-Luc™ (InvivoGen #rep-qlcl) was added at 50 µL/well. Using a microplate reader (Perkin Elmer), the value of the luminescence signal increased in the experimental group treated with the drug compared to the control group not treated with the drug was calculated. EC50 values were derived according to the concentration of the compound using GraphPad Prism.
Work on CCn1nc(C)cc1C(=O)Nc1nc2cc(C(N)=O)cc(OC)c2n1C/C=C/Cn1c(NC(=O)c2cc(C)nn2CC)nc2cc(C(N)=O)cc(OC/C=C/CNC(=O)N3CCNCC3)c21 [Compound 147] yielded an EC50 of 4.03 nM.
CCn1nc(C)cc1C(=O)Nc1nc2cc(C(N)=O)cc(OC)c2n1C/C=C/Cn1c(NC(=O)c2cc(C)nn2CC)nc2cc(C(N)=O)cc(OC/C=C/COC(=O)N(C)CCNC)c21 [Compound 221] showed an EC50 of 3.48 nM.
Work on CCn1nc(C)cc1C(=O)Nc1nc2cc(C(N)=O)cc(OC)c2n1C/C=C/Cn1c(NC(=O)c2cc(C)nn2CC)nc2cc(C(N)=O)cc(OC/C=C/Cn3cc(CN)nn3)c21 [Compound 139] yielded an EC50 of 2.25 nM.
Compound CCn1nc(C)cc1C(=O)Nc1nc2cc(C(N)=O)cc(OC)c2n1C/C=C/Cn1c(NC(=O)c2cc(C)nn2CC)nc2cc(C(N)=O)cc(OC/C=C/CN3CCOCC3)c21 [Compound 13] has an EC50 of 0.54 nM.
CCn1nc(C)cc1C(=O)Nc1nc2cc(C(N)=O)cc(O)c2n1C/C=C/Cn1c(NC(=O)c2cc(C)nn2CC)nc2cc(C(N)=O)cc(OC/C=C/Cn3cc(N)cn3)c21 [Compound 69] was tested, and the EC50 was 0.85 nM.
Compound CCn1nc(C)cc1C(=O)Nc1nc2cc(C(N)=O)cc(OC)c2n1C/C=C/Cn1c(NC(=O)c2cc(C)nn2CC)nc2cc(C(N)=O)cc(OC/C=C/Cn3cc(NCCC(=O)O)cn3)c21 [Compound 175] has an EC50 of 3.96 nM.
Work on CCc1nc(C)oc1C(=O)Nc1nc2cc(C(N)=O)cc(OC/C=C/Cn3cc(N)cn3)c2n1C/C=C/Cn1c(NC(=O)c2cc(C)nn2CC)nc2cc(C(N)=O)cc(OC)c21 [Compound 222] yielded an EC50 of 2.72 nM.
With CCn1nc(C)cc1C(=O)Nc1nc2cc(C(N)=O)cc(OC)c2n1C/C=C/Cn1c(NC(=O)c2cc(C)nn2CC)nc2cc(C(N)=O)cc(OCC#CCn3cc(N)cn3)c21 [Compound 178] the EC50 was 0.7 nM.
CCn1nc(C)cc1C(=O)Nc1nc2cc(C(N)=O)cc(OC)c2n1C/C=C/Cn1c(NC(=O)c2cc(C)nn2CC)nc2cc(C(N)=O)cc(OC/C=C\CN3CCOCC3)c21 [Compound 33] was tested, and the EC50 was 0.93 nM.
CCn1nc(C)cc1C(=O)Nc1nc2cc(C(N)=O)cc(OC)c2n1C/C=C/Cn1c(NC(=O)c2cc(C)nn2CC)nc2cc(C(N)=O)cc(OC/C=C\CN3CCNCC3=O)c21 [Compound 43] was tested, and the EC50 was 2.81 nM.
Work on CCn1nc(C)cc1C(=O)Nc1nc2cc(C(N)=O)cc(OC)c2n1C/C=C/Cn1c(NC(=O)c2cc(C)nn2CC)nc2cc(C(N)=O)cc(OC/C=C/Cn3cc(N)c(C(=O)O)n3)c21 [Compound 164] yielded an EC50 of 1.04 nM.
With CCn1nc(C)cc1C(=O)Nc1nc2cc(C(N)=O)cc(OC)c2n1C/C=C/Cn1c(NC(=O)c2cc(C)nn2CC)nc2cc(C(N)=O)cc(OC/C=C/Cn3cc(N)c(C(=O)OC)n3)c21 [Compound 163] the EC50 was 0.96 nM.
CCn1nc(C)cc1C(=O)Nc1nc2cc(C(N)=O)cc(OC/C=C/Cn3cc(N)cn3)c2n1C/C=C/Cn1c(NC(=O)c2cc(C)nn2CC)nc2cc(C(N)=O)cc(OCCCS(C)(=N)=O)c21 (stereo not shown) [Compound 197] showed an EC50 of 8.13 nM.
For CCn1nc(C)cc1C(=O)Nc1nc2cc(C(N)=O)cc(OC)c2n1C/C=C/Cn1c(NC(=O)c2cc(C)nn2CC)nc2cc(C(N)=O)cc(OC/C=C/COc3cccc(N)c3)c21 [Compound 95], the EC50 was 1.75 nM.
Compound CCn1nc(C)cc1C(=O)Nc1nc2cc(C(N)=O)cc(OC)c2n1C/C=C/Cn1c(NC(=O)c2cc(C)nn2CC)nc2cc(C(N)=O)cc(OC/C=C\CN3CCC(N)CC3)c21 [Compound 38] has an EC50 of 10.3 nM.
CCn1nc(C)cc1C(=O)Nc1nc2cc(C(N)=O)cc(OC)c2n1C/C=C/Cn1c(NC(=O)c2cc(C)nn2CC)nc2cc(C(N)=O)cc(OC/C=C/[C@@H]3CCCN3)c21 [Compound 120] was tested, and the EC50 was 2.25 nM.
Compound CCn1nc(C)cc1C(=O)Nc1nc2cc(C(N)=O)cc(OC)c2n1C/C=C/Cn1c(NC(=O)c2cc(C)nn2CC)nc2cc(C(N)=O)cc(OC/C=C/CN3CCNCC3)c21 [Compound 23] has an EC50 of 6.43 nM.
Compound CCn1nc(C)cc1C(=O)Nc1nc2cc(C(N)=O)cc(OC)c2n1C/C=C/Cn1c(NC(=O)c2cc(C)nn2CC)nc2cc(C(N)=O)cc(OCC#CCN3CCOCC3)c21 [Compound 48] has an EC50 of 0.69 nM.
Compound CCn1nc(C)cc1C(=O)Nc1nc2cc(C(N)=O)cc(OC)c2n1C/C=C/Cn1c(NC(=O)c2cc(C)nn2CC)nc2cc(C(N)=O)cc(OC/C=C/Cn3ncc4cc(N)ccc43)c21 [Compound 127] has an EC50 of 0.47 nM.
